Laboratory results: the supplement of paper PMC10307832

Columns and labels:
Assay in all cases: relative viability (nuclei count vs DMSO), 5 days (fraction); higher = more cells survive
A-427 = tested on: A-427
Method in brief: (§1)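 Medians of duplicate plates are given as relative viability. That measure is the nuclei count in treated wells divided by the count in vehicle wells. Counts were taken on 4× images of lung cancer cell lines in 1536-well plates, 5 days after pin-tool dosing the day after seeding with one drug alone or a fixed anchor-drug dose plus five library-drug doses (not always all listed) in √10 steps.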

COR-L23 = tested on: COR-L23
Method in brief: as §1

ChaGo-K-1 = tested on: ChaGo-K-1
Method in brief: as §1

EMC-BAC-2 = tested on: EMC-BAC-2
Method in brief: as §1

HARA = tested on: HARA
Method in brief: as §1

HCC-15 = tested on: HCC-15
Method in brief: as §1

HCC-366 = tested on: HCC-366
Method in brief: as §1

HCC-78 = tested on: HCC-78
Method in brief: as §1

LC-2-ad = tested on: LC-2-ad
Method in brief: as §1

LK-2 = tested on: LK-2
Method in brief: as §1

NCI-H1650 = tested on: NCI-H1650
Method in brief: as §1

NCI-H1734 = tested on: NCI-H1734
Method in brief: as §1

NCI-H1793 = tested on: NCI-H1793
Method in brief: as §1

NCI-H1944 = tested on: NCI-H1944
Method in brief: as §1

NCI-H1993 = tested on: NCI-H1993
Method in brief: as §1

NCI-H2009 = tested on: NCI-H2009
Method in brief: as §1

NCI-H2023 = tested on: NCI-H2023
Method in brief: as §1

NCI-H2228 = tested on: NCI-H2228
Method in brief: as §1

NCI-H23 = tested on: NCI-H23
Method in brief: as §1

NCI-H2405 = tested on: NCI-H2405
Method in brief: as §1

NCI-H838 = tested on: NCI-H838
Method in brief: as §1

SK-LU-1 = tested on: SK-LU-1
Method in brief: as §1

UMC-11 = tested on: UMC-11
Method in brief: as §1

With `Clc1ccc(Nc2nnc(Cc3ccncc3)c3ccccc23)cc1` [Vatalanib] + CC1(C)CCC(c2ccc(Cl)cc2)=C(CN2CCN(c3ccc(C(=O)NS(=O)(=O)c4ccc(N[C@H](CCN5CCOCC5)CSc5ccccc5)c(S(=O)(=O)C(F)(F)F)c4)cc3)CC2)C1 [Navitoclax] (partner 0.5 µM) the relative viability (A-427; first compound 0.04 µM) was 0.998, the relative viability (A-427; first compound 0.1265 µM) was 0.92 and the relative viability (A-427; first compound 0.4 µM) was 0.867. It also gave a relative viability (A-427; first compound 1.265 µM) of 0.794, a relative viability (A-427; first compound 4 µM) of 0.98 and a relative viability (COR-L23; first compound 0.04 µM) of 1.1. For the same compound, the relative viability (COR-L23; first compound 0.1265 µM) was 0.972, the relative viability (COR-L23; first compound 0.4 µM) was 1.24 and the relative viability (COR-L23; first compound 1.265 µM) was 0.778. The relative viability (COR-L23; first compound 4 µM) was 1.01, the relative viability (ChaGo-K-1; first compound 0.04 µM) was 0.565 and the relative viability (ChaGo-K-1; first compound 0.1265 µM) was 0.94. For the same compound, the relative viability (ChaGo-K-1; first compound 1.265 µM) was 0.934, the relative viability (ChaGo-K-1; first compound 4 µM) was 1.16 and the relative viability (EMC-BAC-2; first compound 0.04 µM) was 1.18. It also gave a relative viability (EMC-BAC-2; first compound 0.1265 µM) of 1.12, a relative viability (EMC-BAC-2; first compound 0.4 µM) of 1.23 and a relative viability (EMC-BAC-2; first compound 1.265 µM) of 1.15. The relative viability (EMC-BAC-2; first compound 4 µM) was 1.14, the relative viability (HARA; first compound 0.04 µM) was 1.08 and the relative viability (HARA; first compound 0.1265 µM) was 1.03. The relative viability (HARA; first compound 0.4 µM) was 1.18, the relative viability (HARA; first compound 1.265 µM) was 1.11 and the relative viability (HARA; first compound 4 µM) was 1.13. For the same compound, the relative viability (HCC-15; first compound 0.04 µM) was 0.719, the relative viability (HCC-15; first compound 0.1265 µM) was 0.713 and the relative viability (HCC-15; first compound 0.4 µM) was 0.767. It also gave a relative viability (HCC-15; first compound 1.265 µM) of 0.737, a relative viability (HCC-15; first compound 4 µM) of 0.654 and a relative viability (HCC-366; first compound 0.04 µM) of 1.09. The relative viability (HCC-366; first compound 0.1265 µM) was 0.816, the relative viability (HCC-366; first compound 0.4 µM) was 1.25 and the relative viability (HCC-366; first compound 1.265 µM) was 1.03. For the same compound, the relative viability (HCC-366; first compound 4 µM) was 0.991, the relative viability (HCC-78; first compound 0.04 µM) was 0.714 and the relative viability (HCC-78; first compound 0.1265 µM) was 0.76. It also gave a relative viability (HCC-78; first compound 0.4 µM) of 0.888, a relative viability (HCC-78; first compound 4 µM) of 0.72 and a relative viability (LC-2-ad; first compound 0.04 µM) of 0.415. The relative viability (LC-2-ad; first compound 0.1265 µM) was 0.456, the relative viability (LC-2-ad; first compound 0.4 µM) was 0.558 and the relative viability (LC-2-ad; first compound 1.265 µM) was 0.412. For the same compound, the relative viability (LC-2-ad; first compound 4 µM) was 0.529, the relative viability (LK-2; first compound 0.04 µM) was 0.883 and the relative viability (LK-2; first compound 0.1265 µM) was 0.824. The relative viability (LK-2; first compound 1.265 µM) was 0.955, the relative viability (LK-2; first compound 4 µM) was 0.807 and the relative viability (NCI-H1650; first compound 0.04 µM) was 1.32. It also gave a relative viability (NCI-H1650; first compound 0.1265 µM) of 1.2, a relative viability (NCI-H1650; first compound 0.4 µM) of 1.41 and a relative viability (NCI-H1650; first compound 1.265 µM) of 0.951. The relative viability (NCI-H1650; first compound 4 µM) was 1.17, the relative viability (NCI-H1734; first compound 0.04 µM) was 0.921 and the relative viability (NCI-H1734; first compound 0.1265 µM) was 0.719. The relative viability (NCI-H1734; first compound 0.4 µM) was 0.927, the relative viability (NCI-H1734; first compound 1.265 µM) was 0.823 and the relative viability (NCI-H1734; first compound 4 µM) was 0.822. For the same compound, the relative viability (NCI-H1793; first compound 0.04 µM) was 0.452, the relative viability (NCI-H1793; first compound 0.1265 µM) was 0.435 and the relative viability (NCI-H1793; first compound 0.4 µM) was 0.498. For the same compound, the relative viability (NCI-H1793; first compound 1.265 µM) was 0.318, the relative viability (NCI-H1793; first compound 4 µM) was 0.502 and the relative viability (NCI-H1944; first compound 0.04 µM) was 1.01. It also gave a relative viability (NCI-H1944; first compound 0.1265 µM) of 1.02, a relative viability (NCI-H1944; first compound 0.4 µM) of 1.06 and a relative viability (NCI-H1944; first compound 1.265 µM) of 1.08. The relative viability (NCI-H1944; first compound 4 µM) was 1.06, the relative viability (NCI-H1993; first compound 0.04 µM) was 0.894 and the relative viability (NCI-H1993; first compound 0.1265 µM) was 0.935. It also gave a relative viability (NCI-H1993; first compound 0.4 µM) of 0.826, a relative viability (NCI-H1993; first compound 1.265 µM) of 0.789 and a relative viability (NCI-H1993; first compound 4 µM) of 0.63. It also gave a relative viability (NCI-H2009; first compound 0.04 µM) of 1.18, a relative viability (NCI-H2009; first compound 0.1265 µM) of 1.09 and a relative viability (NCI-H2009; first compound 0.4 µM) of 1.24. It also gave a relative viability (NCI-H2009; first compound 1.265 µM) of 1.12, a relative viability (NCI-H2009; first compound 4 µM) of 1.13 and a relative viability (NCI-H2023; first compound 0.04 µM) of 1. For the same compound, the relative viability (NCI-H2023; first compound 0.1265 µM) was 1.02, the relative viability (NCI-H2023; first compound 0.4 µM) was 1.08 and the relative viability (NCI-H2023; first compound 1.265 µM) was 0.892. For the same compound, the relative viability (NCI-H2023; first compound 4 µM) was 0.982, the relative viability (NCI-H2228; first compound 0.04 µM) was 0.845 and the relative viability (NCI-H2228; first compound 0.1265 µM) was 0.92. The relative viability (NCI-H2228; first compound 0.4 µM) was 1.1, the relative viability (NCI-H2228; first compound 1.265 µM) was 0.755 and the relative viability (NCI-H2228; first compound 4 µM) was 0.83. It also gave a relative viability (NCI-H23; first compound 0.04 µM) of 0.772, a relative viability (NCI-H23; first compound 0.1265 µM) of 0.699 and a relative viability (NCI-H23; first compound 0.4 µM) of 0.841. The relative viability (NCI-H23; first compound 1.265 µM) was 0.745, the relative viability (NCI-H23; first compound 4 µM) was 0.825 and the relative viability (NCI-H2405; first compound 0.04 µM) was 0.856. The relative viability (NCI-H2405; first compound 0.1265 µM) was 0.726, the relative viability (NCI-H2405; first compound 1.265 µM) was 0.728 and the relative viability (NCI-H2405; first compound 4 µM) was 0.713. The relative viability (NCI-H838; first compound 0.04 µM) was 1.08, the relative viability (NCI-H838; first compound 0.1265 µM) was 1.11 and the relative viability (NCI-H838; first compound 0.4 µM) was 1.19. The relative viability (NCI-H838; first compound 1.265 µM) was 1.07, the relative viability (NCI-H838; first compound 4 µM) was 1.18 and the relative viability (SK-LU-1; first compound 0.04 µM) was 0.755. The relative viability (SK-LU-1; first compound 0.1265 µM) was 0.594, the relative viability (SK-LU-1; first compound 0.4 µM) was 0.742 and the relative viability (SK-LU-1; first compound 1.265 µM) was 0.832. The relative viability (SK-LU-1; first compound 4 µM) was 0.82, the relative viability (UMC-11; first compound 0.04 µM) was 0.274 and the relative viability (UMC-11; first compound 0.1265 µM) was 0.367. For the same compound, the relative viability (UMC-11; first compound 0.4 µM) was 0.303, the relative viability (UMC-11; first compound 1.265 µM) was 0.29 and the relative viability (UMC-11; first compound 4 µM) was 0.322.
